Data published in ChEMBL document CHEMBL3885861, “Open TG-GATES”.

Organism: Rattus norvegicus
Assay: Open TG-GATES - Regimen: Daily Repeat
Type: toxicity, organism-based, Sprague-Dawley
Parameters: regimen Daily Repeat, gender Male, age 6 weeks
Conditions: in vivo, po, 300 mg/kg, route gavage, dose level Middle; for APTT / Bas / Eos / Fbg / Hb / Ht / Lym / MCH / MCHC / MCV / Mono / Neu / PT / Plat / RBC / Ret / WBC: tissue Blood; for KIDNEY_L / KIDNEY_R / KIDNEY_TOTAL: tissue Kidney; for LIVER: tissue Liver; for A/G / ALP / ALT / AST / BUN / CRE / Ca / Cl / DBIL / GLC / IP / K / LDH / Na / PL / RALB / TBIL / TC / TG / TP / gamma-GTP: tissue Plasma

COC1=CC(=O)C[C@@H](C)[C@]12Oc1c(Cl)c(OC)cc(OC)c1C2=O [GRISEOFULVIN]
TERMINAL_BW (72 h, time 3 day): 228.3 g
APTT (72 h, time 3 day): 19.9 s
Bas (72 h, time 3 day): 0%
Eos (72 h, time 3 day): 1%
Fbg (72 h, time 3 day): 220 mg/dL
Hb (72 h, time 3 day): 13.6 g/dL
Ht (72 h, time 3 day): 40.4%
Lym (72 h, time 3 day): 73.2%
MCH (72 h, time 3 day): 20.8 pg
MCHC (72 h, time 3 day): 33.5%
MCV (72 h, time 3 day): 62.1 fL
Mono (72 h, time 3 day): 3%
Neu (72 h, time 3 day): 22.2%
PT (72 h, time 3 day): 12.5 s
Plat (72 h, time 3 day): 118.4 x10_4/uL
RBC (72 h, time 3 day): 651.8 x10_4/ul
Ret (72 h, time 3 day): 6.7%
WBC (72 h, time 3 day): 99.2 x10_2/uL
KIDNEY_L (72 h, time 3 day): 0.9 g
KIDNEY_R (72 h, time 3 day): 1 g
KIDNEY_TOTAL (72 h, time 3 day): 1.9 g
LIVER (72 h, time 3 day): 11.3 g
A/G (72 h, time 3 day): 1.6
ALP (72 h, time 3 day): 836.2 IU/L
ALT (72 h, time 3 day): 44.4 IU/L
AST (72 h, time 3 day): 68.2 IU/L
BUN (72 h, time 3 day): 13.8 mg/dL
CRE (72 h, time 3 day): 0.4 mg/dL
Ca (72 h, time 3 day): 10.8 mg/dL
Cl (72 h, time 3 day): 104.4 meq/L
DBIL (72 h, time 3 day): 0.084 mg/dL
GLC (72 h, time 3 day): 218.2 mg/dL
IP (72 h, time 3 day): 7.6 mg/dL
K (72 h, time 3 day): 3.8 meq/L
LDH (72 h, time 3 day): 160.4 IU/L
Na (72 h, time 3 day): 141.2 meq/L
PL (72 h, time 3 day): 141.6 mg/dL
RALB (72 h, time 3 day): 3.4 g/dL
TBIL (72 h, time 3 day): 0.1 mg/dL
TC (72 h, time 3 day): 80.4 mg/dL
TG (72 h, time 3 day): 69 mg/dL
TP (72 h, time 3 day): 5.6 g/dL
gamma-GTP (72 h, time 3 day): 1.2 IU/L
TERMINAL_BW ([…], time 7 day): 261.2 g
TERMINAL_BW ([…], time 14 day): 309.7 g
TERMINAL_BW ([…], time 28 day): 406.6 g
APTT ([…], time 7 day): 19 s
Bas ([…], time 7 day): 0%
Eos ([…], time 7 day): 0.6%
Fbg ([…], time 7 day): 224 mg/dL
Hb ([…], time 7 day): 13.7 g/dL
Ht ([…], time 7 day): 40.7%
Lym ([…], time 7 day): 76.6%
MCH ([…], time 7 day): 21.2 pg
MCHC ([…], time 7 day): 33.7%
MCV ([…], time 7 day): 62.9 fL
Mono ([…], time 7 day): 3%
Neu ([…], time 7 day): 18.6%
PT ([…], time 7 day): 12.3 s
Plat ([…], time 7 day): 140.6 x10_4/uL
RBC ([…], time 7 day): 646.8 x10_4/ul
Ret ([…], time 7 day): 5.7%
WBC ([…], time 7 day): 118 x10_2/uL
APTT ([…], time 14 day): 19.1 s
Bas ([…], time 14 day): 0%
Eos ([…], time 14 day): 1%
Fbg ([…], time 14 day): 228.6 mg/dL
Hb ([…], time 14 day): 14.2 g/dL
Ht ([…], time 14 day): 42.2%
Lym ([…], time 14 day): 82%
MCH ([…], time 14 day): 20.9 pg
MCHC ([…], time 14 day): 33.7%
MCV ([…], time 14 day): 61.9 fL
Mono ([…], time 14 day): 2.8%
Neu ([…], time 14 day): 13.6%
PT ([…], time 14 day): 12.2 s
Plat ([…], time 14 day): 115.6 x10_4/uL
RBC ([…], time 14 day): 682 x10_4/ul
Ret ([…], time 14 day): 2.8%
WBC ([…], time 14 day): 104.2 x10_2/uL
APTT ([…], time 28 day): 23.1 s
Bas ([…], time 28 day): 0%
Eos ([…], time 28 day): 1%
Fbg ([…], time 28 day): 215.8 mg/dL
Hb ([…], time 28 day): 15.2 g/dL
Ht ([…], time 28 day): 44.7%
Lym ([…], time 28 day): 81%
MCH ([…], time 28 day): 19.9 pg
MCHC ([…], time 28 day): 34%
MCV ([…], time 28 day): 58.8 fL
Mono ([…], time 28 day): 3.2%
Neu ([…], time 28 day): 14.4%
PT ([…], time 28 day): 12.6 s
Plat ([…], time 28 day): 108.5 x10_4/uL
RBC ([…], time 28 day): 761 x10_4/ul
Ret ([…], time 28 day): 2.7%
WBC ([…], time 28 day): 136.8 x10_2/uL
KIDNEY_L ([…], time 7 day): 1.1 g
KIDNEY_R ([…], time 7 day): 1.1 g
KIDNEY_TOTAL ([…], time 7 day): 2.2 g
KIDNEY_L ([…], time 14 day): 1.3 g
KIDNEY_R ([…], time 14 day): 1.3 g
KIDNEY_TOTAL ([…], time 14 day): 2.6 g
KIDNEY_L ([…], time 28 day): 1.4 g
KIDNEY_R ([…], time 28 day): 1.3 g
KIDNEY_TOTAL ([…], time 28 day): 2.7 g
LIVER ([…], time 7 day): 12.8 g
LIVER ([…], time 14 day): 14.8 g
LIVER ([…], time 28 day): 17.3 g
A/G ([…], time 7 day): 1.4
ALP ([…], time 7 day): 848 IU/L
ALT ([…], time 7 day): 35.6 IU/L
AST ([…], time 7 day): 58.4 IU/L
BUN ([…], time 7 day): 13.4 mg/dL
CRE ([…], time 7 day): 0.4 mg/dL
Ca ([…], time 7 day): 10.7 mg/dL
Cl ([…], time 7 day): 104 meq/L
DBIL ([…], time 7 day): 0.08 mg/dL
GLC ([…], time 7 day): 207.6 mg/dL
IP ([…], time 7 day): 7.5 mg/dL
K ([…], time 7 day): 3.7 meq/L
LDH ([…], time 7 day): 136.6 IU/L
Na ([…], time 7 day): 142.6 meq/L
PL ([…], time 7 day): 122.8 mg/dL
RALB ([…], time 7 day): 3.4 g/dL
TBIL ([…], time 7 day): 0.1 mg/dL
TC ([…], time 7 day): 70.4 mg/dL
TG ([…], time 7 day): 60 mg/dL
TP ([…], time 7 day): 5.8 g/dL
gamma-GTP ([…], time 7 day): 0.8 IU/L
A/G ([…], time 14 day): 1.5
ALP ([…], time 14 day): 784.6 IU/L
ALT ([…], time 14 day): 32 IU/L
AST ([…], time 14 day): 51.4 IU/L
BUN ([…], time 14 day): 14.8 mg/dL
CRE ([…], time 14 day): 0.6 mg/dL
Ca ([…], time 14 day): 10.6 mg/dL
Cl ([…], time 14 day): 102.8 meq/L
DBIL ([…], time 14 day): 0.078 mg/dL
GLC ([…], time 14 day): 221.6 mg/dL
IP ([…], time 14 day): 7.5 mg/dL
K ([…], time 14 day): 4.3 meq/L
LDH ([…], time 14 day): 112.2 IU/L
Na ([…], time 14 day): 140.2 meq/L
PL ([…], time 14 day): 142.6 mg/dL
RALB ([…], time 14 day): 3.5 g/dL
TBIL ([…], time 14 day): 0.1 mg/dL
TC ([…], time 14 day): 82.2 mg/dL
TG ([…], time 14 day): 59.6 mg/dL
TP ([…], time 14 day): 5.9 g/dL
gamma-GTP ([…], time 14 day): 1 IU/L
A/G ([…], time 28 day): 1.3
ALP ([…], time 28 day): 565.4 IU/L
ALT ([…], time 28 day): 34.8 IU/L
AST ([…], time 28 day): 55.2 IU/L
BUN ([…], time 28 day): 15.6 mg/dL
CRE ([…], time 28 day): 0.5 mg/dL
Ca ([…], time 28 day): 10.6 mg/dL
Cl ([…], time 28 day): 103 meq/L
DBIL ([…], time 28 day): 0.07 mg/dL
GLC ([…], time 28 day): 237.6 mg/dL
IP ([…], time 28 day): 7.3 mg/dL
K ([…], time 28 day): 3.7 meq/L
LDH ([…], time 28 day): 159.8 IU/L
Na ([…], time 28 day): 140.6 meq/L
PL ([…], time 28 day): 125.8 mg/dL
RALB ([…], time 28 day): 3.4 g/dL
TBIL ([…], time 28 day): 0.1 mg/dL
TC ([…], time 28 day): 70.4 mg/dL
TG ([…], time 28 day): 83 mg/dL
TP ([…], time 28 day): 6 g/dL
gamma-GTP ([…], time 28 day): 1 IU/L
